Assay results from US5525599A, “7-substituted-amino-3-substituted-3-cephem-4-carboxylic acids” (Eli Lilly and Company, priority 1993, dated 1996).
In brackets after ≈: the same amount, converted by molar mass. Where two headings read alike, the source gives them in different places.

Columns and labels:
[1] = tested on: 33 strains of methicillin-resistant staphylococci; assay: Geometric mean MICs against 33 strains of methicillin-resistant staphylococci; assay type: cell-based
Protocol: (§1) Test compounds were diluted to an appropriate range of concentrations in 0.1M phosphate buffer (pH 7), incorporated into Mueller-Hinton agar (difco) supplemented with 1% Bacto-Supplement C (Difco) at 50° C. and allowed to solidify in petri dishes. Fresh overnight cultures of test bacteria were diluted to approximately 1×10^4 cells/mL aand applied in […] to the surface of the agar plates. The inoculated plates were incubated overnight at 35° C. in ambient air. MIC endpoints were recorded as the lowest antibiotic concentrations that inhibited the development of visible bacterial growth on the plates.
It is known that resistance to methicillin in staphylococci is often of the heterogeneous type and therefore not easily detected. […] (Goldstein, F. W.; Acar, J. J. Antimicrob. Chemother. […], 27, 549). […] J.; Drake T. A.; Rusnak, M. G.; Sande, M. A. J. Infect. Dis. 1984, 149, 894).

[2] = tested on: K. pneumonia (X26); assay: In vitro activity (MIC), agar dilution method; assay type: cell-based; conditions: Klebsiella pneumoniae; K. pneumonia (X26), agar dilution; read-out: MIC
Protocol: (§2) Cephalosporins 9a-o were assayed against a broad array of Gram-positive and Gram-negative bacteria in Mueller-Hinton agar by the 2-fold serial dilution method, (Kirst, H. A.; J. Antibiot. 1982, 35, 1675).
as §1

[3] = tested on: Staph. aureus (X400); assay: In vitro activity (MIC), agar dilution method; assay type: cell-based; conditions: Staphylococcus aureus; Staph. aureus (X400), methicillin-resistant strain, agar dilution; read-out: MIC
Protocol: as §2, §1

[4] = tested on: H. influenzae (C.L.); assay: In vitro activity (MIC), agar dilution method; assay type: cell-based; conditions: Haemophilus influenzae; H. influenzae (C.L.), agar dilution; read-out: MIC
Protocol: as §2, §1

[5] = tested on: K. pneumonia (KAE); assay: In vitro activity (MIC), agar dilution method; assay type: cell-based; conditions: Klebsiella pneumoniae
Protocol: as §2, §1

[6] = tested on: Strept. pyogenes (C203); assay: In vitro activity (MIC), agar dilution method; assay type: cell-based; conditions: Streptococcus pyogenes; Strept. pyogenes (C203), agar dilution; read-out: MIC
Protocol: as §2, §1

[7] = tested on: H. influenzae (76); assay: In vitro activity (MIC), agar dilution method; assay type: cell-based; conditions: Haemophilus influenzae; H. influenzae (76), agar dilution; read-out: MIC
Protocol: as §2, §1

[8] = tested on: Staph. aureus (X1.1); assay: In vitro activity (MIC), agar dilution method; assay type: cell-based; conditions: Staphylococcus aureus; Staph. aureus (X1.1), agar dilution; read-out: MIC
Protocol: as §2, §1

[9] = tested on: Staph. epiderm. (270); assay: In vitro activity (MIC), agar dilution method; assay type: cell-based; conditions: Staphylococcus epidermidis, methicillin-resistant strain
Protocol: as §2, §1

[10] = tested on: Enter. faecalis (2041); assay: In vitro activity (MIC), agar dilution method; assay type: cell-based; conditions: Enterococcus faecalis; Enter. faecalis (2041), agar dilution; read-out: MIC
Protocol: as §2, §1

[11] = tested on: Staph. aureus (V41); assay: In vitro activity (MIC), agar dilution method; assay type: cell-based; conditions: Staphylococcus aureus; Staph. aureus (V41), agar dilution; read-out: MIC
Protocol: as §2, §1

[12] = tested on: E. coli (TEM); assay: In vitro activity (MIC), agar dilution method; assay type: cell-based; conditions: Escherichia coli
Protocol: as §2, §1

[13] = tested on: Enter. faecium (X66); assay: In vitro activity (MIC), agar dilution method; assay type: cell-based; conditions: Enterococcus faecium; Enter. faecium (X66), agar dilution; read-out: MIC
Protocol: as §2, §1

[14] = tested on: K. pneumonia (X68); assay: In vitro activity (MIC), agar dilution method; assay type: cell-based; conditions: Klebsiella pneumoniae
Protocol: as §2, §1

[15] = tested on: Staph. epiderm. (222); assay: In vitro activity (MIC), agar dilution method; assay type: cell-based; conditions: Staphylococcus epidermidis; Staph. epiderm. (222), methicillin-resistant strain, agar dilution; read-out: MIC
Protocol: as §2, §1

[16] = tested on: E. coli (EC14); assay: In vitro activity (MIC), agar dilution method; assay type: cell-based; conditions: Escherichia coli
Protocol: as §2, §1

[17] = tested on: E. coli (N10); assay: In vitro activity (MIC), agar dilution method; assay type: cell-based; conditions: Escherichia coli
Protocol: as §2, §1

[18] = MICs against 4 strains of methicillin-resistant staphylococci; assay type: cell-based, Staphylococcus aureus and Staphylococcus epidermidis; conditions: Staphylococcus aureus, read-out: minimal inhibitory concentrations (MICs)
Protocol: as §2, §1

[19] = tested on: other Gram(-) bacteria; assay: In vitro activity (MIC), agar dilution method; assay type: cell-based
[20] = tested on: Staph. aureus (S13E); assay: In vitro activity (MIC), agar dilution method; assay type: cell-based; conditions: Staphylococcus aureus
Protocol: as §2, §1

[21] = K. pneumonia (KAE), agar dilution, read-out: MIC
[22] = K. pneumonia (X68), agar dilution, read-out: MIC
[23] = E. coli (EC14), agar dilution, read-out: MIC
[24] = E. coli (N10), agar dilution, read-out: MIC

SMILES | MIC [2] | MIC [3] | MIC [4] | MIC [5] | MIC [6] | MIC [7] | MIC [8] | MIC [9] | MIC [10] | MIC [11] | MIC [12] | MIC [13] | MIC [14] | MIC [15] | MIC [16] | MIC [17] | MIC [18] | MIC [19] | MIC [5, 21] | MIC [20] | also measured
CC(=O)OCC1=C(C(=O)O)N2C(=O)[C@@H](NC(=O)Cc3csc(-c4ccccc4O)n3)[C@H]2SC1 [9a, [6R-[6A,7B(R*)]]-3-[(Acetyloxy)methyl]-7-[[[2-(2-hydroxyphenyl)-4-thiazolyl]acetyl]amino]-8-oxo-5-thia-1-azabicyclo[4.2.0]oct-2-ene-2-carboxylic Acid] | 2 µg/mL (≈ 4.09 µM) | 2 µg/mL (≈ 4.09 µM) | 8 µg/mL (≈ 16.3 µM) | 128 µg/mL (≈ 261 µM) | 1 µg/mL (≈ 2.04 µM) | 0.5 µg/mL (≈ 1.02 µM) | 0.03 µg/mL (≈ 0.0613 µM) | 0.125 µg/mL (≈ 0.255 µM) | 2 µg/mL (≈ 4.09 µM) | 0.25 µg/mL (≈ 0.511 µM) | 128 µg/mL (≈ 261 µM) | 16 µg/mL (≈ 32.7 µM) | 128 µg/mL (≈ 261 µM) | 4 µg/mL (≈ 8.17 µM) | 128 µg/mL (≈ 261 µM) | 128 µg/mL (≈ 261 µM) | ≤ 16 µg/mL | > 64 µg/mL |  |  | MIC ([1]; MHA + 4% NaCl, 33 strains, 35° C., read-out: Geometric mean MIC): 2.4 µg/mL; MIC ([1]; MHA, 33 strains, read-out: Geometric mean MIC): 1.7 µg/mL (≈ 3.47 µM); MICs relative to clinically achievable concentrations for cephalosporins ([1]; in words, 4% NaCl): remained in the range usually considered to be clinically achievable concentrations for cephalosporins; change of MICs in the presence of NaCl ([1]; in words, 4% NaCl): only slightly elevated in the presence of NaCl
CC(=O)OCC1=C(C(=O)O)N2C(=O)[C@@H](NC(=O)Cc3csc(-c4c(O)cccc4O)n3)[C@H]2SC1 [9e, [6R-[6A,7B(R*)]]-3-[(Acetyloxy)methyl]-7-[[[2-(2,6-dihydroxyphenyl)-4-thiazolyl]acetyl]amino]-8-oxo-5-thia-1-azabicyclo[4.2.0]oct-2-ene-2-carboxylic Acid] | 0.5 µg/mL (≈ 0.989 µM) | 16 µg/mL (≈ 31.6 µM) | 4 µg/mL (≈ 7.91 µM) |  | 0.03 µg/mL (≈ 0.0593 µM) | 4 µg/mL (≈ 7.91 µM) | 8 µg/mL (≈ 15.8 µM) | 4 µg/mL (≈ 7.91 µM) | 4 µg/mL (≈ 7.91 µM) | 16 µg/mL (≈ 31.6 µM) |  | 4 µg/mL (≈ 7.91 µM) |  | 0.5 µg/mL (≈ 0.989 µM) |  |  | ≤ 16 µg/mL | > 64 µg/mL | 128 µg/mL (≈ 253 µM) | 4 µg/mL (≈ 7.91 µM) | MIC [14, 22]: 16 µg/mL (≈ 31.6 µM); MIC [16, 23]: 16 µg/mL (≈ 31.6 µM); MIC [17, 24]: 64 µg/mL (≈ 127 µM)
O=C(Cc1csc(-c2c(O)cccc2O)n1)N[C@@H]1C(=O)N2C(C(=O)O)=C(Cl)CS[C@H]12 [9f, [6R-[6A, 7B (R*)]]-3-Chloro-7-[[[2-(2,6-dihydroxyphenyl)-4-thiazolyl]acetyl]amino]-8-oxo-5-thia-1-azabicyclo[4.2.0]oct-2-ene-2-carboxylic Acid] | 0.5 µg/mL (≈ 1.07 µM) | 16 µg/mL (≈ 34.2 µM) | 1 µg/mL (≈ 2.14 µM) |  | 0.06 µg/mL (≈ 0.128 µM) | 1 µg/mL (≈ 2.14 µM) | 16 µg/mL (≈ 34.2 µM) | 8 µg/mL (≈ 17.1 µM) | 8 µg/mL (≈ 17.1 µM) | 16 µg/mL (≈ 34.2 µM) |  | 8 µg/mL (≈ 17.1 µM) |  | 2 µg/mL (≈ 4.27 µM) |  |  |  | > 64 µg/mL | 128 µg/mL (≈ 274 µM) |  | MIC [14, 22]: 32 µg/mL (≈ 68.4 µM); MIC [16, 23]: 32 µg/mL (≈ 68.4 µM); MIC [17, 24]: 32 µg/mL (≈ 68.4 µM)
CC(=O)OCC1=C(C(=O)O)N2C(=O)[C@@H](NC(=O)Cc3csc(-c4cccc(O)c4)n3)[C@H]2SC1 [9m, [6R-[6A,7B(R*)]]-3-[(Acetyloxy)methyl]-7-[[[2-(3-hydroxyphenyl)-4-thiazolyl]acetyl]amino]-8-oxo-5-thia-1-azabicyclo[4.2.0]oct-2-ene-2-carboxylic Acid] | 4 µg/mL (≈ 8.17 µM) | 16 µg/mL (≈ 32.7 µM) |  | 128 µg/mL (≈ 261 µM) |  |  | 0.25 µg/mL (≈ 0.511 µM) | 1 µg/mL (≈ 2.04 µM) | 16 µg/mL (≈ 32.7 µM) | 1 µg/mL (≈ 2.04 µM) | 128 µg/mL (≈ 261 µM) | 32 µg/mL (≈ 65.4 µM) | 128 µg/mL (≈ 261 µM) | 0.25 µg/mL (≈ 0.511 µM) | 128 µg/mL (≈ 261 µM) | 128 µg/mL (≈ 261 µM) | ≤ 16 µg/mL | > 64 µg/mL |  | 8 µg/mL (≈ 16.3 µM) | 
COc1ccccc1-c1nc(CC(=O)N[C@@H]2C(=O)N3C(C(=O)O)=C(COC(C)=O)CS[C@H]23)cs1 [9o, [6R-[6A,7B(R*)]]-3-[(Acetyloxy)methyl]-7-[[[2-(2-methoxyphenyl)-4-thiazolyl]acetyl]amino]-8-oxo-5-thia-1-azabicyclo[4.2.0]oct-2-ene-2-carboxylic Acid] | 2 µg/mL (≈ 3.97 µM) | 16 µg/mL (≈ 31.8 µM) | 64 µg/mL (≈ 127 µM) | 128 µg/mL (≈ 254 µM) | 0.015 µg/mL (≈ 0.0298 µM) | 4 µg/mL (≈ 7.94 µM) | 0.06 µg/mL (≈ 0.119 µM) | 0.5 µg/mL (≈ 0.993 µM) | 8 µg/mL (≈ 15.9 µM) | 0.5 µg/mL (≈ 0.993 µM) | 128 µg/mL (≈ 254 µM) | 16 µg/mL (≈ 31.8 µM) | 128 µg/mL (≈ 254 µM) | 0.125 µg/mL (≈ 0.248 µM) | 128 µg/mL (≈ 254 µM) | 128 µg/mL (≈ 254 µM) | ≤ 16 µg/mL | > 64 µg/mL |  | 8 µg/mL (≈ 15.9 µM) | 
CO/N=C(\C(=O)N[C@@H]1C(=O)N2C(C(=O)O)=C(COC(C)=O)CS[C@H]12)c1csc(N)n1 [Cefot, Cefotaxime, reference compound] | 0.008 µg/mL (≈ 0.0176 µM) | 128 µg/mL (≈ 281 µM) | 0.008 µg/mL (≈ 0.0176 µM) |  | 0.008 µg/mL (≈ 0.0176 µM) | 0.008 µg/mL (≈ 0.0176 µM) | 1 µg/mL (≈ 2.2 µM) | 8 µg/mL (≈ 17.6 µM) | 1 µg/mL (≈ 2.2 µM) | 2 µg/mL (≈ 4.39 µM) | 0.008 µg/mL (≈ 0.0176 µM) | 128 µg/mL (≈ 281 µM) |  | 2 µg/mL (≈ 4.39 µM) |  |  |  |  | 1 µg/mL (≈ 2.2 µM) | 64 µg/mL (≈ 141 µM) | MIC [14, 22]: 0.015 µg/mL (≈ 0.0329 µM); MIC [16, 23]: 0.015 µg/mL (≈ 0.0329 µM); MIC [17, 24]: 0.06 µg/mL (≈ 0.132 µM)
Cc1onc(-c2ccccc2)c1C(=O)N[C@@H]1C(=O)N2[C@@H]1SC(C)(C)[C@@H]2C(=O)O [Oxacillin, reference compound] |  |  |  |  |  |  |  |  |  |  |  |  |  |  |  |  |  |  |  |  | MIC ([1]; read-out: Geometric mean MIC, MHA + 4% NaCl, 33 strains, 35° C.): 97 µg/mL; MIC ([1]; read-out: Geometric mean MIC, MHA, 33 strains): 49 µg/mL (≈ 122 µM)
